Laboratory results: ChEMBL document CHEMBL1150977, “A quantitative analysis of kinase inhibitor selectivity” (Nat Biotechnol, 2008)

Experiments:
[1] = biological target: Insulin-like growth factor 1 receptor (Homo sapiens, UniProt P08069)
[2] = biological target: Mast/stem cell growth factor receptor Kit (Homo sapiens, UniProt P10721, V559D)
[3] = biological target: T1, Testis-specific serine/threonine-protein kinase 1 (Homo sapiens, UniProt Q9BXA7)
T1 sequence (Q9BXA7 whole entry): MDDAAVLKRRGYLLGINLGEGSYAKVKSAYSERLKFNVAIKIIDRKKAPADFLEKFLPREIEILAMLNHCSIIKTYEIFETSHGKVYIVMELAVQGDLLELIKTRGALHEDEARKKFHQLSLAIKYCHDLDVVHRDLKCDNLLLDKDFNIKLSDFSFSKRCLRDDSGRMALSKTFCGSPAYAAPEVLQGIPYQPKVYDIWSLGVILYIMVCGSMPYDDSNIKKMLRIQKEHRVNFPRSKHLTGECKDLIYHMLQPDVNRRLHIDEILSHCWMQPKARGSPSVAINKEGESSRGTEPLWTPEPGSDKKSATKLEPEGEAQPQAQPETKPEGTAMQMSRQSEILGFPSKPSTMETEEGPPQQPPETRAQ

[4] = biological target: RAC-alpha serine/threonine-protein kinase (Homo sapiens, UniProt P31749)
[5] = biological target: T2, MAP/microtubule affinity-regulating kinase 4 (Homo sapiens, UniProt Q96L34)
T2 sequence (Q96L34 whole entry): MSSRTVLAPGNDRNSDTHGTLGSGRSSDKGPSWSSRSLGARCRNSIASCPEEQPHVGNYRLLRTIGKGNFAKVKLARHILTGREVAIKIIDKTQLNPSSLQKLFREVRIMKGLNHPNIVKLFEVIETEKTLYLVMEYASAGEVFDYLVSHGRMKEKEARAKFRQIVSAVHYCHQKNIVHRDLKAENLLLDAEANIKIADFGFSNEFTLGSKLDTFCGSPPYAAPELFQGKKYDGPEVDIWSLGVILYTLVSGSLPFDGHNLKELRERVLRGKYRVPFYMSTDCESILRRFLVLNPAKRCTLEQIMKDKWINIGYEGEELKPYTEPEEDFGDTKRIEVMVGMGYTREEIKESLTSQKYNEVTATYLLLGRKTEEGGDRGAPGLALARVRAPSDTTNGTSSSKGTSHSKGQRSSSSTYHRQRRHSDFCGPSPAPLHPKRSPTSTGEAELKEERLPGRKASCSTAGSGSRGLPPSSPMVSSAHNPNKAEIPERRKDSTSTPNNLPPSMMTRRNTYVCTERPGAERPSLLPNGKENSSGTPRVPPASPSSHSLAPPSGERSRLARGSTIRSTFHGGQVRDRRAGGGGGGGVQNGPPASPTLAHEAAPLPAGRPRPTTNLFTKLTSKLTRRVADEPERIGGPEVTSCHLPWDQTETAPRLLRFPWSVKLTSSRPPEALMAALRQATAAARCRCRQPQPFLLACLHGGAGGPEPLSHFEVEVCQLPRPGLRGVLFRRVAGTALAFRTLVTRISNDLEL

[6] = biological target: Cyclin-dependent kinase 2 (Homo sapiens, UniProt P24941)
[7] = biological target: T3, Serine/threonine-protein kinase PLK4 (Homo sapiens, UniProt O00444)
T3 sequence (O00444 whole entry): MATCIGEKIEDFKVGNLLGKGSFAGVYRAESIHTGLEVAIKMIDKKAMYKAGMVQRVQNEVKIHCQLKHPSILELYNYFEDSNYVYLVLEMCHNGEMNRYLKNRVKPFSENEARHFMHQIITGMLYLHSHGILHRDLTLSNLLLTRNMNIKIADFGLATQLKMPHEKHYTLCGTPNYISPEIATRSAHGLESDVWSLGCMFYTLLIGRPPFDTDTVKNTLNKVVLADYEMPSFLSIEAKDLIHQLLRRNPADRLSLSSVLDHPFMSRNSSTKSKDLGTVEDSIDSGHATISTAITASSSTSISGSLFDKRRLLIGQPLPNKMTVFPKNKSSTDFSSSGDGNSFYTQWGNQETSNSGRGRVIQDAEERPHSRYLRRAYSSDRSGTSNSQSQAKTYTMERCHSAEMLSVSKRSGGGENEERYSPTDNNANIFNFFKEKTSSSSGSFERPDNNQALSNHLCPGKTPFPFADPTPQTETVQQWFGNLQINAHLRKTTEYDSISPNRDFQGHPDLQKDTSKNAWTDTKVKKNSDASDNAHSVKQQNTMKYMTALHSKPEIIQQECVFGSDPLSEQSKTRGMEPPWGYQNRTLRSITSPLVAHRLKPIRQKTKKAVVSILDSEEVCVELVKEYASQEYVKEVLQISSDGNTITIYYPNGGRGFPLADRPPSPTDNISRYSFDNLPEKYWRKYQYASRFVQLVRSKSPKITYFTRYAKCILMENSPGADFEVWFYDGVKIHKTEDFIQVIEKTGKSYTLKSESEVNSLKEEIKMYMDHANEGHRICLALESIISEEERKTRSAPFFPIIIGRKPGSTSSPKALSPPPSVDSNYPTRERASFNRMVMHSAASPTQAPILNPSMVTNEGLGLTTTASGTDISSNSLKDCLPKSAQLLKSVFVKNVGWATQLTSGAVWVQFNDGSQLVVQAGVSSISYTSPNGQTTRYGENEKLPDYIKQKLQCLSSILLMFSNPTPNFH

[8] = biological target: Mast/stem cell growth factor receptor Kit (Homo sapiens, UniProt P10721, T670I/V559D)
Aurora kinase A = biological target: T4, Aurora kinase A (Homo sapiens, UniProt O14965)
T4 sequence (O14965 whole entry): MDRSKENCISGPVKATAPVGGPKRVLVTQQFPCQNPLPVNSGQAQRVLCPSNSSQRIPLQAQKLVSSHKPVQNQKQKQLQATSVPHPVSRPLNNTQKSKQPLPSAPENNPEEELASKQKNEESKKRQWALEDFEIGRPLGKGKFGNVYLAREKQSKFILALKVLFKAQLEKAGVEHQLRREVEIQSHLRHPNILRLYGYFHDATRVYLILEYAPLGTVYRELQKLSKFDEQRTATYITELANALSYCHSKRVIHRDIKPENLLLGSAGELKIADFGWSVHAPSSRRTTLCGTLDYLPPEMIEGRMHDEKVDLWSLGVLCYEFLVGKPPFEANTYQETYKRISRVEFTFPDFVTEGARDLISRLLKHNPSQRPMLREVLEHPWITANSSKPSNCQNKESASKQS

[9] = biological target: Phosphatidylinositol 4,5-bisphosphate 3-kinase catalytic subunit alpha isoform (Homo sapiens, UniProt P42336)
Chain of Phosphatidylinositol 4,5-bisphosphate 3-kinase catalytic subunit alpha isoform (P42336 whole entry, canonical isoform): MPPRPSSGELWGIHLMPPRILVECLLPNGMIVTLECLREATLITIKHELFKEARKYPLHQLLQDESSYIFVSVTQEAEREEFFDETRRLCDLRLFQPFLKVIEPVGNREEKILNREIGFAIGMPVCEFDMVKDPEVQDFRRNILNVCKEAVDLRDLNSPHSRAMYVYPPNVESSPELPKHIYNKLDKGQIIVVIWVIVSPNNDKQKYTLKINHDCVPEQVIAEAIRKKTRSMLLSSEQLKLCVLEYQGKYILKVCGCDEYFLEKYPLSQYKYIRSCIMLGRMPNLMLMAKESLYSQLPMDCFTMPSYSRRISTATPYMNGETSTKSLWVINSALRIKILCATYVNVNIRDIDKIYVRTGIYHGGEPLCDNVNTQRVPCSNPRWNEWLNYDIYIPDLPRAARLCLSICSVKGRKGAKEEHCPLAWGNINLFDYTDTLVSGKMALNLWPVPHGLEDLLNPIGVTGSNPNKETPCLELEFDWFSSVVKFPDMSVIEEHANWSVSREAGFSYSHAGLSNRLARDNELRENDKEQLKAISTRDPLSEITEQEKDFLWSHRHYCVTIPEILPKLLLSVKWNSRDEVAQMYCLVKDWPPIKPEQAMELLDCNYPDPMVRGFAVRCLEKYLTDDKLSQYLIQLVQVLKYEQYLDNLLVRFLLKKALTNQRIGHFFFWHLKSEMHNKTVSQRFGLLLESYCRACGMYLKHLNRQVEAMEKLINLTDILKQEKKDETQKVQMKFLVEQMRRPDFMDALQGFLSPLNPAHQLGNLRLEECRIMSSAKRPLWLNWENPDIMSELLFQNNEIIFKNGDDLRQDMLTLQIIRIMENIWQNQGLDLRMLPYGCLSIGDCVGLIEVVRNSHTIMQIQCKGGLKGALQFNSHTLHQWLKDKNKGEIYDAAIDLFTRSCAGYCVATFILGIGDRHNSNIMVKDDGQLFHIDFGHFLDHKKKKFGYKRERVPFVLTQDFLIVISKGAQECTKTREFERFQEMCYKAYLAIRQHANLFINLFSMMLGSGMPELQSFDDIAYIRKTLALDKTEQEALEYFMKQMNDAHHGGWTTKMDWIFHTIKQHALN

Chain of RAC-alpha serine/threonine-protein kinase (P31749 whole entry): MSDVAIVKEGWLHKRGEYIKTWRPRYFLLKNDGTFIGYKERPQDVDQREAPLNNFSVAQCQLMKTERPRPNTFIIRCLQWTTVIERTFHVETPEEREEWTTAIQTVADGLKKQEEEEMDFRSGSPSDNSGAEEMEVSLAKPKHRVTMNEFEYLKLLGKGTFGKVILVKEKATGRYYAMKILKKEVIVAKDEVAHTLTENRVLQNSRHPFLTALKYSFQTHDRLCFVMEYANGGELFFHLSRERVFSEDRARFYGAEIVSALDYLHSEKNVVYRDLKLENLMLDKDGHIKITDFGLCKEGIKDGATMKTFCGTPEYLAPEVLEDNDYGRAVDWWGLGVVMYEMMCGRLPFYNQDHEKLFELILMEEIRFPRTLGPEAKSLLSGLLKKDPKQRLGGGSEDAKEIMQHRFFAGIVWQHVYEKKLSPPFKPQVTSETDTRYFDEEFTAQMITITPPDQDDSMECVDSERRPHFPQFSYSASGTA
Chain of Mast/stem cell growth factor receptor Kit (Homo sapiens, UniProt P10721, T670I/V559D) (P10721 26-976 V559D/T670I limits assumed): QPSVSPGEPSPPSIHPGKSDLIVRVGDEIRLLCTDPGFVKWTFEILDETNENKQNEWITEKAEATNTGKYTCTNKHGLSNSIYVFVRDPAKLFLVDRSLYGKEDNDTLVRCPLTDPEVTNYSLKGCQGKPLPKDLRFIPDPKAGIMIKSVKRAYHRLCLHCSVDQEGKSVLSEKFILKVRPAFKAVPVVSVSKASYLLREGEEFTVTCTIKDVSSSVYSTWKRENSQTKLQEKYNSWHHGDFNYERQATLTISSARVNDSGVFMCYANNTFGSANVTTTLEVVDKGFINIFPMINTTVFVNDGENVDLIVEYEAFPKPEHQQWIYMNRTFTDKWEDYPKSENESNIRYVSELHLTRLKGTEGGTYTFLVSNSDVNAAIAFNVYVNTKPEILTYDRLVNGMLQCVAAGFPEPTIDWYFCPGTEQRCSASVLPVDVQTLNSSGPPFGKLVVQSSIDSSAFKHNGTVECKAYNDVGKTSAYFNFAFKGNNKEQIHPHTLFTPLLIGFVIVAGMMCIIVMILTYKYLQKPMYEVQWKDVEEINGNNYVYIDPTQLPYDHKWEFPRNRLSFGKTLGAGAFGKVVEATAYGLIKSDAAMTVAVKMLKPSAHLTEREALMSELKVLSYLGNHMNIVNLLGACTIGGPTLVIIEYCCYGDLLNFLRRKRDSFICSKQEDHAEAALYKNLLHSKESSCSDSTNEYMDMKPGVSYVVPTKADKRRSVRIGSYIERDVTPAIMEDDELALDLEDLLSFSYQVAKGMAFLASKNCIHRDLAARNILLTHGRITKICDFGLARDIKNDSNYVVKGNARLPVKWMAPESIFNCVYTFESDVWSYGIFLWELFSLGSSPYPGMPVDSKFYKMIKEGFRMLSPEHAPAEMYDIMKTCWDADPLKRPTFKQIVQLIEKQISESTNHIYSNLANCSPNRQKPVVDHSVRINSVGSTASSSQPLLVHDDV
Chain of Mast/stem cell growth factor receptor Kit (Homo sapiens, UniProt P10721, V559D) (P10721 26-976 V559D limits assumed): as the sequence (P10721 26-976 V559D/T670I limits assumed) above, with I645T counted along it
Chain of Insulin-like growth factor 1 receptor (P08069 31-736 limits assumed): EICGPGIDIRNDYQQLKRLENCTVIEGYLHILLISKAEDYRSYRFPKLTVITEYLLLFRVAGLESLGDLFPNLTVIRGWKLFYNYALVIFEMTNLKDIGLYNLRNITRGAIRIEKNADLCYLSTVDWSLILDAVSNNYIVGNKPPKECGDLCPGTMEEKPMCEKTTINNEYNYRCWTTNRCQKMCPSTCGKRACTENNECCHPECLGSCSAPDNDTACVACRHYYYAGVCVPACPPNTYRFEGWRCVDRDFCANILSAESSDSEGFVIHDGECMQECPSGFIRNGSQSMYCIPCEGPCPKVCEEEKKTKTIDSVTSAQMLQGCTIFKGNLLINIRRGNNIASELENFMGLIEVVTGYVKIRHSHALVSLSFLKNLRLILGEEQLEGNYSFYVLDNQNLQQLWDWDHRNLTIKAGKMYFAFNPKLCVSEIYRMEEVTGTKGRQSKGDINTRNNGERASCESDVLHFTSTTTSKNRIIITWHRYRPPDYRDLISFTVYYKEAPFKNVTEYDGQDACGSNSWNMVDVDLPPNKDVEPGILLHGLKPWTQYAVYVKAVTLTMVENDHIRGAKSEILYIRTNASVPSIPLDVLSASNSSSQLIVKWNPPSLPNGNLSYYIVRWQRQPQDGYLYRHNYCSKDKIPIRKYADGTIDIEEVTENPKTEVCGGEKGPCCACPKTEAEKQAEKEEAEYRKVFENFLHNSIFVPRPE
Chain of Insulin-like growth factor 1 receptor (P08069 741-1367 limits assumed): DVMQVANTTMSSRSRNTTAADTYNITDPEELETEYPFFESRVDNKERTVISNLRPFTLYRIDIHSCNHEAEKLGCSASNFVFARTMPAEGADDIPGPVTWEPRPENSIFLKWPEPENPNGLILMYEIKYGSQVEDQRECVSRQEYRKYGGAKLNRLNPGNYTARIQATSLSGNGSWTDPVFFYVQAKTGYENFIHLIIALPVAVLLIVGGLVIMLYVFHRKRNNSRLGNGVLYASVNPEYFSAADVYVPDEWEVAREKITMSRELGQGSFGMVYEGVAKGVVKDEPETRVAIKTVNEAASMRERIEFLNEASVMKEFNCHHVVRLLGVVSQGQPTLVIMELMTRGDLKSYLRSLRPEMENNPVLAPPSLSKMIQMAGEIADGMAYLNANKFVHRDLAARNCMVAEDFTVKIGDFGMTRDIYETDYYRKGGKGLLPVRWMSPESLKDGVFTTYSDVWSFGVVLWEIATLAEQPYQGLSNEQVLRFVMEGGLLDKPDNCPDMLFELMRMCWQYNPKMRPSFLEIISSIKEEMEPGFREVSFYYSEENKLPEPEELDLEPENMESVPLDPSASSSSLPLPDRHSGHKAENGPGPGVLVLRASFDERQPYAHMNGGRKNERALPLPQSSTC

| SMILES | Kd [1] | Kd [2] | Kd [3] | Kd [4] | Kd [5] | Kd [6] | Kd [7] | Kd [8] | Kd (Aurora kinase A) | Kd [9] |
| --- | --- | --- | --- | --- | --- | --- | --- | --- | --- | --- |
| COCC(=O)NC/C=C/c1ccc2ncnc(Nc3ccc(Oc4ccc(C)nc4)c(C)c3)c2c1 [CP-724714] | > 10 µM | > 10 µM | > 10 µM | > 10 µM | > 10 µM | > 10 µM | > 10 µM | > 10 µM | > 10 µM | – |
| Nc1nc(Nc2ccc(S(N)(=O)=O)cc2)nn1C(=O)c1c(F)cccc1F [JNJ-7706621] | – | – | > 10 µM | > 10 µM | – | – | 0.12 µM | – | – | > 10 µM |
| CCOc1cc2ncc(C#N)c(Nc3ccc(F)c(Cl)c3)c2cc1NC(=O)/C=C/CN(C)C [PELITINIB] | > 10 µM | > 10 µM | > 10 µM | > 10 µM | > 10 µM | > 10 µM | > 10 µM | > 10 µM | > 10 µM | > 10 µM |
| Oc1ccc(-c2nc(-c3ccncc3)c(-c3ccc(F)cc3)[nH]2)cc1 [SB-202190] | > 10 µM | > 10 µM | > 10 µM | > 10 µM | > 10 µM | > 10 µM | > 10 µM | > 10 µM | > 10 µM | > 10 µM |
| NC(=O)c1ccc(-c2nc(-c3ccc4c(c3)OCO4)c(-c3ccccn3)[nH]2)cc1 [SB-431542] | > 10 µM | > 10 µM | > 10 µM | > 10 µM | > 10 µM | – | > 10 µM | > 10 µM | > 10 µM | > 10 µM |
